PubChem BioAssay (NCI)
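In this assay, cells in 96-well plates receive the compound at five concentrations for 48 hours. Endpoints are linearly interpolated between the surrounding concentrations. GI50 = concentration required for 50% inhibition of growth. At the TGI there is no net growth.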

Key:
Experiment in all cases: NCI tumour cell line growth inhibition, 48 h
RXF 393 renal = tested on: RXF 393 renal
COLO 205 colon = tested on: COLO 205 colon
HCC-2998 colon = tested on: HCC-2998 colon
CCRF-CEM leukemia = tested on: CCRF-CEM leukemia
K-562 leukemia = tested on: K-562 leukemia
HOP-92 NSCLC = tested on: HOP-92 NSCLC
SK-MEL-5 melanoma = tested on: SK-MEL-5 melanoma
HCT-116 colon = tested on: HCT-116 colon
MDA-MB-231 breast = tested on: MDA-MB-231 breast
T-47D breast = tested on: T-47D breast

Row | SMILES | TGI (RXF 393 renal) [µM] | TGI (COLO 205 colon) [µM] | TGI (HCC-2998 colon) [µM] | TGI (CCRF-CEM leukemia) [µM] | TGI (K-562 leukemia) [µM] | TGI (HOP-92 NSCLC) [µM] | TGI (SK-MEL-5 melanoma) [µM] | TGI (HCT-116 colon) [µM] | TGI (MDA-MB-231 breast) [µM] | GI50 (MDA-MB-231 breast) [µM] | GI50 (COLO 205 colon) [µM] | GI50 (T-47D breast) [µM] | TGI (T-47D breast) [µM] | GI50 (HCC-2998 colon) [µM] | GI50 (CCRF-CEM leukemia) [µM] | GI50 (K-562 leukemia) [µM] | GI50 (HOP-92 NSCLC) [µM] | GI50 (SK-MEL-5 melanoma) [µM] | GI50 (HCT-116 colon) [µM] | GI50 (RXF 393 renal) [µM]
1 | CN(C)CC1CCCC/C1=N/O (configuration not stated) | > 100 | > 100 | > 100 | > 100 | > 100 | > 100 | > 100 | > 100 |  |  |  |  |  |  |  |  |  |  |  | 
2 | CC#Cc1ccc(-c2ccccc2)s1 | > 100 | > 100 |  | > 100 |  | > 100 | > 100 | > 100 | > 100 |  |  |  |  |  |  |  |  |  |  | 
3 | CN(C)CC1CCC/C1=N/OC(=O)c1ccccc1 (configuration not stated) | > 100 | > 100 | > 100 | > 100 | > 100 | > 100 | > 100 | > 100 |  |  |  |  |  |  |  |  |  |  |  | 
4 | Cc1cc2c(cc1C)[n+](=O)c(C(=O)c1ccccc1)c(C(F)F)n2[O-] |  | 35.5 | > 100 | 29.6 | > 100 | > 100 | 25 | > 100 | > 100 | 30.4 | 9.83 | 30.3 | > 100 | 32.8 | 5.12 | 10.1 | 37.7 | 9.3 | 30.8 | 
5 | COc1ccc2c(c1)[n+]([O-])c(C(N)=O)c(N)[n+]2[O-] |  | 46.2 |  |  | > 100 | > 100 | > 100 | > 100 |  |  |  |  |  |  |  |  |  |  |  | 
6 | Cc1ccc(S(=O)(=O)N2CCC2c2ccccc2)cc1 (configuration not stated) | > 100 | > 100 | > 100 | > 100 | > 100 | 78.8 | > 100 | > 100 |  |  |  |  |  |  |  |  |  |  |  | 
7 | C/C(CN1C(=O)c2ccccc2C1=O)=N\NS(=O)(=O)c1ccc(Cl)cc1 |  | > 100 | > 100 | > 100 | > 100 |  | > 100 | > 100 |  |  |  |  |  |  |  |  |  |  |  | 
8 | Cc1nc(-c2nc(C)c(C(=O)NNC(=O)C[n+]3ccccc3)s2)sc1C(=O)NNC(=O)C[n+]1ccccc1 | > 100 | > 100 | > 100 | > 100 | > 100 | > 100 | > 100 | > 100 |  |  |  |  |  |  |  |  |  |  |  | 
9 | O=C1OCC2=C1C(c1cccc(Br)c1)c1cc3c(cc1N2CCO)OCCO3 (configuration not stated) | 0.0361 | 0.371 | 1.71 | > 26.3 | > 27.7 |  | 0.252 | 2.07 | 2.85 | 0.209 | 0.079 | 0.379 | > 41.3 | 0.0927 | 0.0763 | 0.055 |  | 0.0348 | 0.0595 | 0.012
10 | CCOC(=O)C1Sc2ccccc2N=C1C (configuration not stated) | > 100 | > 100 | > 100 |  | > 100 | > 100 |  | > 100 |  |  |  |  |  |  |  |  |  |  |  | 
11 | O=S1C(=c2ccc(=C3Sc4ccccc4S3)cc2)Sc2ccccc21 (configuration not stated) | > 57.7 | > 100 | 30.3 | > 100 | > 100 | > 100 | 33.3 | > 56.6 |  |  |  |  |  |  |  |  |  |  |  | 
12 | O=C(NC1C=CCC2C(=O)N(c3ccccc3)C(=O)C12)OCc1ccccc1 (configuration not stated) | > 100 | > 100 | > 100 | > 100 | > 100 | > 100 | > 100 | > 100 |  |  |  |  |  |  |  |  |  |  |  | 
13 | COc1ccc(C(c2cc(OC)c(OC)c(OC)c2)n2cncn2)cc1O (configuration not stated) | > 100 | 1.54 | > 100 | > 100 | > 100 | > 100 | 38.3 | > 100 | > 100 | 1.5 | 0.332 |  |  | 1.35 | 0.402 | 0.427 | 9.69 | 0.44 | 0.448 | 0.321
14 | CNC(=O)NCCCC(NC(C)=O)C(=O)NCc1ccccc1 (configuration not stated) | > 100 | > 100 | > 100 | > 100 | > 100 | > 100 | > 100 | > 100 |  |  |  |  |  |  |  |  |  |  |  | 
15 | CN(C)C=Nc1nc(=O)n(C2CCC(CO)O2)cc1F (configuration not stated) | > 100 | > 100 | > 100 | > 100 | > 100 | > 100 | > 100 |  |  |  |  |  |  |  |  |  |  |  |  | 
16 | COc1ccc(/C=C/COC(C)=O)cc1OC | > 100 | > 100 | > 100 |  | > 100 | > 100 | > 100 |  |  |  |  |  |  |  |  |  |  |  |  | 
